Calls of active or inactive are those of the source. No cut-off for these calls is given here.
How the values were obtained:
HUVEC [1] = assay: Antiadhesive activity in HUVEC assessed as decrease in cell adhesion at 25 nM to 2.5 uM after 24 hrs by crystal violet staining technique; format: functional, cell-based; settings: Homo sapiens
HUVEC [2] = assay: Inhibition of VEGF-induced HUVEC proliferation at 25 nM to 2.5 uM incubated for 30 mins prior to VEGF challenge measured after 24 hrs by fluorescence assay; format: functional, cell-based; settings: Homo sapiens
HUVEC [3] = assay: Cytotoxicity against HUVEC assessed as cell viability at 25 nM to 2.5 uM after 24 to 48 hrs by MTT assay; format: cell-based; settings: human, 0.025 µM
HUVEC [4] = assay: Antimigratory activity in VEGF-induced HUVEC assessed as decrease in cell migration at 25 nM to 2.5 uM incubated for 30 mins prior to VEGF challenge measured after 24 hrs by Transwell assay; format: functional, cell-based; settings: Homo sapiens
HUVEC [5] = assay: Antiangiogenic activity in HUVEC assessed as inhibition of VEGF-induced capillary network formation at 25 nM to 2.5 uM after 24 hrs by matrigel assay; format: functional, cell-based; settings: Homo sapiens
HUVEC [6] = assay: Antimigratory activity in VEGF-induced HUVEC assessed as decrease in cell migration at 2.5 uM incubated for 30 mins prior to VEGF challenge measured after 24 hrs by Transwell assay; format: functional, cell-based; settings: Homo sapiens

Structure (SMILES)	Activity (HUVEC [1])	inhibition (HUVEC [2])	Activity (HUVEC [3])	Activity (HUVEC [4])	Activity (HUVEC [5])	Activity (HUVEC [6])
C/C(=C\CC/C(C)=C/CC[C@]1(C)CCc2cc(O)c(C)c(C)c2O1)CCC=C(CO)CO	inactive	Active	Non-toxic	inactive	Active	–
C/C(=C\CC/C(C)=C/CC[C@]1(C)CCc2cc(O)cc(C)c2O1)CCC=C(CO)CO	Active	Active	Non-toxic	–	Active	Active
